Assay results published in PubChem BioAssay AID1745844 (Carcinogenic Potency Database (CPDB), 2022).
Active and inactive are the calls of the source. No rule for the calls is given here.

System: rodent lifetime carcinogenesis bioassay, tumor incidence TD50
Experiment: carcinogenic potency in animals, long-term in vivo studies, CPDB compilation (AID 1745844)

O=C1NS(=O)(=O)c2ccccc21
TD50 (monkey, strain Rhesus [Macaca mulatta], both sexes, in feed, site: any site (literature study), lesion: malignant tumor, dosed 1221 weeks, study length 1221 weeks): 610 mg/kg/day | TD50 (monkey, strain Rhesus [Macaca mulatta], both sexes, in feed, site: thyroid gland, lesion: lymphoma, dosed 1221 weeks, study length 1221 weeks): 43.3 mg/kg/day | TD50 (mouse, strain CD-1 HaM/ICR, females, in feed, site: any site (literature study), lesion: several types, types named in the paper, dosed 104 weeks, study length 104 weeks): 26100 mg/kg/day (inactive) | carcinogen call (mouse, strain CD-1 HaM/ICR, females, in feed, site: liver, lesion: one or several types, types not named, dosed 104 weeks, study length 104 weeks): negative (inactive) | carcinogen call (mouse, strain CD-1 HaM/ICR, females, in feed, site: lung, lesion: one or several types, types not named, dosed 104 weeks, study length 104 weeks): negative (inactive) | TD50 (mouse, strain CD-1 HaM/ICR, males, in feed, site: any site (literature study), lesion: several types, types named in the paper, dosed 104 weeks, study length 104 weeks): 881 mg/kg/day (inactive) | carcinogen call (mouse, strain CD-1 HaM/ICR, males, in feed, site: liver, lesion: hepatoma, dosed 104 weeks, study length 104 weeks): negative (inactive) | TD50 (mouse, strain CD-1 HaM/ICR, males, in feed, site: lung, lesion: one or several types, types not named, dosed 104 weeks, study length 104 weeks): 1360 mg/kg/day (inactive) | carcinogen call (mouse, strain Swiss albino, females, in feed, site: liver, lesion: hepatoma, dosed 76 weeks, study length 76 weeks): negative (inactive) | TD50 (mouse, strain Swiss albino, females, in feed, site: lung, lesion: one or several types, types not named, dosed 76 weeks, study length 76 weeks): 56300 mg/kg/day (inactive) | carcinogen call (mouse, strain Swiss, females, in feed, site: urinary bladder, lesion: anaplastic carcinoma, dosed 91 weeks, study length 91 weeks): negative (inactive) | carcinogen call (mouse, strain Swiss, males, in feed, site: urinary bladder, lesion: transitional-cell carcinoma, dosed 91 weeks, study length 91 weeks): negative (inactive) | TD50 (rat, strain ACI, males, in feed, site: urinary bladder, lesion: papilloma, dosed 52 weeks, study length 52 weeks): 1110 mg/kg/day | TD50 (rat, strain ACI, males, in feed, site: urinary bladder, lesion: transitional-cell carcinoma, dosed 52 weeks, study length 52 weeks): 3710 mg/kg/day | carcinogen call (rat, strain Analbuminaemic (Sprague-Dawley derived), males, in feed, site: urinary bladder, lesion: carcinoma, dosed 80 weeks, study length 80 weeks): negative (inactive) | TD50 (rat, strain Charles River CD (Sprague-Dawley), females, in feed, site: liver, lesion: biliary cystadenoma, dosed 142 weeks, study length 142 weeks): 155000 mg/kg/day | TD50 (rat, strain Charles River CD (Sprague-Dawley), females, in feed, site: liver, lesion: cholangiocarcinoma, dosed 113 weeks, study length 113 weeks): 78200 mg/kg/day (inactive) | TD50 (rat, strain Charles River CD (Sprague-Dawley), females, in feed, site: liver, lesion: neoplastic nodule, dosed 142 weeks, study length 142 weeks): 155000 mg/kg/day | TD50 (rat, strain Charles River CD (Sprague-Dawley), females, in feed, site: liver, lesion: nodular hyperplasia, dosed 113 weeks, study length 113 weeks): 98400 mg/kg/day (inactive) | carcinogen call (rat, strain Charles River CD (Sprague-Dawley), males, in feed, site: any site (literature study), lesion: several types, types named in the paper, dosed 104 weeks, study length 104 weeks): negative (inactive) | TD50 (rat, strain Charles River CD (Sprague-Dawley), males, in feed, site: liver, lesion: biliary cystadenoma, dosed 142 weeks, study length 142 weeks): 60000 mg/kg/day | carcinogen call (rat, strain Charles River CD (Sprague-Dawley), males, in feed, site: liver, lesion: hepatocellular carcinoma, dosed 113 weeks, study length 113 weeks): negative (inactive) | TD50 (rat, strain Charles River CD (Sprague-Dawley), males, in feed, site: parathyroid, lesion: adenoma, dosed 142 weeks, study length 142 weeks): 23200 mg/kg/day | TD50 (rat, strain Charles River CD (Sprague-Dawley), males, in feed, site: urinary bladder, lesion: transitional-cell carcinoma, dosed 142 weeks, study length 142 weeks): 31100 mg/kg/day | TD50 (rat, strain Charles River CD (Sprague-Dawley), males, in feed, site: urinary bladder, lesion: transitional-cell papilloma, dosed 142 weeks, study length 142 weeks): 30800 mg/kg/day | carcinogen call (rat, strain Fischer 344, males, in feed, site: forestomach, lesion: papilloma, dosed 72 weeks, study length 73 weeks): negative (inactive) | carcinogen call (rat, strain Fischer 344, males, in feed, site: urinary bladder, lesion: carcinoma, dosed 72 weeks, study length 73 weeks): negative (inactive) | carcinogen call (rat, strain Fischer 344, males, in feed, site: urinary bladder, lesion: one or several types, types not named, dosed 52 weeks, study length 52 weeks): negative (inactive) | carcinogen call (rat, strain Fischer 344, males, in feed, site: urinary bladder, lesion: one or several types, types not named, dosed 72 weeks, study length 72 weeks): negative (inactive) | carcinogen call (rat, strain Fischer 344, males, in feed, site: urinary bladder, lesion: one or several types, types not named, dosed 102 weeks, study length 104 weeks): negative (inactive) | carcinogen call (rat, strain Fischer 344, males, in feed, site: urinary bladder, lesion: one or several types, types not named, dosed 104 weeks, study length 104 weeks): negative (inactive) | TD50 (rat, strain Fischer 344, males, in feed, site: urinary bladder, lesion: papilloma, dosed 104 weeks, study length 104 weeks): 54100 mg/kg/day | TD50 (rat, strain Fischer, males, in feed, site: testis, lesion: interstitial-cell tumor, dosed 77 weeks, study length 98 weeks): 613 mg/kg/day | carcinogen call (rat, strain Fischer, males, in feed, site: urinary bladder, lesion: several types, types named in the paper, dosed 100 weeks, study length 104 weeks): negative (inactive) | TD50 (rat, strain Sprague-Dawley, both sexes, in feed, site: any site (literature study), lesion: malignant tumor, dosed 130 weeks, study length 130 weeks): 4100 mg/kg/day (inactive) | carcinogen call (rat, strain Sprague-Dawley, both sexes, in feed, site: urinary bladder, lesion: one or several types, types not named, dosed 130 weeks, study length 130 weeks): negative (inactive) | carcinogen call (rat, strain Sprague-Dawley, males, in feed, site: urinary bladder, lesion: carcinoma, dosed 80 weeks, study length 80 weeks): negative (inactive) | carcinogen call (rat, strain Sprague-Dawley, males, in feed, site: urinary bladder, lesion: one or several types, types not named, dosed 52 weeks, study length 52 weeks): negative (inactive) | TD50 (rat, strain Wistar, both sexes, in feed, site: urinary bladder, lesion: one or several types, types not named, dosed 104 weeks, study length 104 weeks): 125000 mg/kg/day | carcinogen call (rat, strain Wistar, males, in feed, site: urinary bladder, lesion: one or several types, types not named, dosed 52 weeks, study length 52 weeks): negative (inactive)

Nc1ccc(Oc2ccc(N)c(N)c2)cc1
TD50 (mouse, strain ICR/Jcl, males, in feed, site: liver, lesion: hepatoma, dosed 52 weeks, study length 52 weeks): 13.3 mg/kg/day

OCC(O)CCl (centres undefined)
carcinogen call (rat, strain Charles River CD (Sprague-Dawley), females, by gavage, site: parathyroid, lesion: adenoma, dosed 72 weeks, study length 104 weeks): negative (inactive) | TD50 (rat, strain Charles River CD (Sprague-Dawley), males, by gavage, site: parathyroid, lesion: adenoma, dosed 72 weeks, study length 104 weeks): 116 mg/kg/day

C1N2CN3CN1CN(C2)C3
carcinogen call (mouse, strain C3Hf/Dp, females, in drinking water, site: any site (literature study), lesion: several types, types named in the paper, dosed 60 weeks, study length 105 weeks): negative (inactive) | TD50 (mouse, strain C3Hf/Dp, females, in drinking water, site: liver, lesion: angioma, dosed 60 weeks, study length 105 weeks): 51900 mg/kg/day (inactive) | carcinogen call (mouse, strain C3Hf/Dp, females, in drinking water, site: liver, lesion: hepatoma, dosed 60 weeks, study length 105 weeks): negative (inactive) | carcinogen call (mouse, strain C3Hf/Dp, females, in drinking water, site: lung, lesion: adenoma, dosed 60 weeks, study length 105 weeks): negative (inactive) | carcinogen call (mouse, strain C3Hf/Dp, males, in drinking water, site: any site (literature study), lesion: several types, types named in the paper, dosed 60 weeks, study length 105 weeks): negative (inactive) | TD50 (mouse, strain C3Hf/Dp, males, in drinking water, site: liver, lesion: angioma, dosed 60 weeks, study length 105 weeks): 32300 mg/kg/day (inactive) | carcinogen call (mouse, strain C3Hf/Dp, males, in drinking water, site: liver, lesion: hepatoma, dosed 60 weeks, study length 105 weeks): negative (inactive) | TD50 (mouse, strain C3Hf/Dp, males, in drinking water, site: lung, lesion: adenoma, dosed 60 weeks, study length 105 weeks): 293000 mg/kg/day (inactive) | TD50 (mouse, strain CTM, females, in drinking water, site: Harderian gland, lesion: one or several types, types not named, dosed 50 weeks, study length 100 weeks): 26300 mg/kg/day (inactive) | TD50 (mouse, strain CTM, females, in drinking water, site: any site (literature study), lesion: several types, types named in the paper, dosed 50 weeks, study length 100 weeks): 11600 mg/kg/day (inactive) | carcinogen call (mouse, strain CTM, females, in drinking water, site: liver, lesion: angioma, dosed 50 weeks, study length 100 weeks): negative (inactive) | carcinogen call (mouse, strain CTM, females, in drinking water, site: lung, lesion: adenoma, dosed 50 weeks, study length 100 weeks): negative (inactive) | TD50 (mouse, strain CTM, females, in drinking water, site: several sites, sites named in the paper, lesion: one or several types, types not named, dosed 50 weeks, study length 100 weeks): 20900 mg/kg/day (inactive) | carcinogen call (mouse, strain CTM, males, in drinking water, site: any site (literature study), lesion: several types, types named in the paper, dosed 50 weeks, study length 100 weeks): negative (inactive) | carcinogen call (mouse, strain CTM, males, in drinking water, site: liver, lesion: angioma, dosed 50 weeks, study length 100 weeks): negative (inactive) | carcinogen call (mouse, strain CTM, males, in drinking water, site: lung, lesion: adenoma, dosed 50 weeks, study length 100 weeks): negative (inactive) | carcinogen call (mouse, strain SWR, females, in drinking water, site: any site (literature study), lesion: several types, types named in the paper, dosed 60 weeks, study length 103 weeks): negative (inactive) | carcinogen call (mouse, strain SWR, females, in drinking water, site: liver, lesion: one or several types, types not named, dosed 60 weeks, study length 103 weeks): negative (inactive) | carcinogen call (mouse, strain SWR, females, in drinking water, site: lung, lesion: adenoma, dosed 60 weeks, study length 103 weeks): negative (inactive) | carcinogen call (mouse, strain SWR, males, in drinking water, site: any site (literature study), lesion: several types, types named in the paper, dosed 60 weeks, study length 103 weeks): negative (inactive) | carcinogen call (mouse, strain SWR, males, in drinking water, site: liver, lesion: angioma, dosed 60 weeks, study length 103 weeks): negative (inactive) | carcinogen call (mouse, strain SWR, males, in drinking water, site: lung, lesion: adenoma, dosed 60 weeks, study length 103 weeks): negative (inactive) | carcinogen call (rat, strain Wistar, females, in drinking water, site: any site (literature study), lesion: several types, types named in the paper, dosed 104 weeks, study length 146 weeks): negative (inactive) | carcinogen call (rat, strain Wistar, females, in drinking water, site: liver, lesion: one or several types, types not named, dosed 104 weeks, study length 146 weeks): negative (inactive) | carcinogen call (rat, strain Wistar, males, in drinking water, site: any site (literature study), lesion: several types, types named in the paper, dosed 104 weeks, study length 146 weeks): negative (inactive) | carcinogen call (rat, strain Wistar, males, in drinking water, site: liver, lesion: liver-cell carcinoma, dosed 104 weeks, study length 146 weeks): negative (inactive)
